Source: patent publication US9204653B2, “5-fluoro pyrimidine derivatives” (DOW AGROSCIENCES LLC, priority 2008, dated 2015)
Read-outs that look alike come from different tables or passages of the source.

Test system: Mycosphaerella graminicola; Anamorph: Septoria tritici; Bayer Code SEPTTR
Assay: Leaf blotch of wheat, foliar fungicide treatment, one day protectant (1DP) or three day curative (3DC)
Format: in vivo, Septoria tritici on wheat plants (variety Yuma)
Settings: Zymoseptoria tritici, rating of percent disease control
[1] = 24 h, one day protectant, read-out: SETTTR 1DP 25 ppm
[2] = 24 h, one day protectant, read-out: SEPTTR 1DP 100 ppm
[3] = 72 h, three day curative, read-out: SEPTTR 3DC 25 ppm
[4] = 72 h, three day curative, read-out: SEPTTR 3DC 100 ppm
[5] = 24 h, one day protectant (1DP), read-out: SETTTR 1DP 25 ppm
[6] = 24 h, one day protectant (1DP), read-out: SEPTTR 1DP 100 ppm
[7] = 72 h, three day curative (3DC), read-out: SEPTTR 3DC 25 ppm
[8] = 72 h, three day curative (3DC), read-out: SEPTTR 3DC 100 ppm

SMILES	pest or weed control at 25 ppm [1] [%]	pest or weed control at 100 ppm [2] [%]	pest or weed control at 25 ppm [3] [%]	pest or weed control at 100 ppm [4] [%]	pest or weed control at 25 ppm [5] [%]	pest or weed control at 100 ppm [6] [%]	pest or weed control at 25 ppm [7] [%]	pest or weed control at 100 ppm [8] [%]
COc1ccc(COc2ncc(F)c(/N=C/N(C)C)n2)cc1 [Compound 726]	76 to 100	76 to 100	76 to 100	76 to 100				
C/C(=N\c1nc(OCc2ccc(F)cc2)ncc1F)N(C)C [Compound 727]	76 to 100	76 to 100	76 to 100	76 to 100				
CC#CCOc1ncc(F)c(NC(=O)Nc2ccsc2)n1 [Compound 729]	51 to 75	26 to 50	51 to 75	51 to 75				
CC(C)CCOc1ncc(F)c(N)n1 [Compound 731]	0 to 25	0 to 25	0 to 25	0 to 25				
Cc1ccccc1COc1ncc(F)c(N)n1 [Compound 733]	76 to 100	76 to 100	76 to 100	76 to 100				
COc1ccc(Oc2ncc(F)c(NC(=O)Nc3ccsc3)n2)cc1 [Compound 737]					0 to 25	0 to 25	0 to 25	0 to 25
CCCCCC(CC)Oc1ncc(F)c(N)n1 (stereo not shown) [Compound 740]					0 to 25	0 to 25		
Nc1nc(OCc2cc(Cl)cc(C(F)(F)F)c2)ncc1F [Compound 743]					76 to 100	76 to 100	76 to 100	76 to 100
CC(C)/C(=N\c1nc(OCc2ccc(F)cc2)ncc1F)N(C)C [Compound 744]					76 to 100	76 to 100	76 to 100	76 to 100
CC#CCOc1ncc(F)c(NC(C)=O)n1 [Compound 745]					76 to 100	76 to 100	76 to 100	76 to 100
C#CCOc1ncc(F)c(N)n1 [Compound 746]					0 to 25	0 to 25	0 to 25	76 to 100
CC1CC1COc1ncc(F)c(N)n1 (stereo not shown) [Compound 747]					0 to 25	76 to 100	51 to 75	76 to 100
Nc1nc(OCCOc2ccccc2)ncc1F [Compound 748]					0 to 25	0 to 25		
CCOC(=O)Nc1nc(OC(C)c2ccc(F)cc2)ncc1F (stereo not shown) [Compound 749]					76 to 100	76 to 100	76 to 100	76 to 100
Fc1ccccc1CNc1nc(OCc2ccccc2)ncc1F [Compound 750]					26 to 50	76 to 100	26 to 50	51 to 75
CN1CCCC/C1=N\c1nc(OCc2ccn(C)n2)ncc1F [Compound 751]					51 to 75	76 to 100	26 to 50	76 to 100
CCOCCOc1cccc(COc2ncc(F)c(N)n2)c1 [Compound 752]					76 to 100	76 to 100	76 to 100	76 to 100
CCOCNc1nc(OCc2ccccc2)ncc1F [Compound 753]					76 to 100	76 to 100	76 to 100	76 to 100
COc1cccc(COc2ncc(F)c(NN3CCOCC3)n2)c1 [Compound 754]					0 to 25	0 to 25	0 to 25	26 to 50
Cc1ccc(COc2ncc(F)c(N(N)C3CCCCC3)n2)cc1 [Compound 755]					26 to 50	26 to 50	0 to 25	0 to 25
Nc1nc(OCc2ccc(Br)cc2)ncc1F [Compound 757]					76 to 100	76 to 100	76 to 100	76 to 100
O=[N+]([O-])c1ccccc1SNc1nc(OCc2cccc(C(F)(F)F)c2F)ncc1F [Compound 758]					26 to 50	76 to 100	26 to 50	51 to 75

SMILES	pest or weed control at 25 ppm [1] [%]	pest or weed control at 100 ppm [2] [%]	pest or weed control at 25 ppm [3] [%]	pest or weed control at 100 ppm [4] [%]	pest or weed control at 25 ppm [5] [%]	pest or weed control at 100 ppm [6] [%]	pest or weed control at 25 ppm [7] [%]	pest or weed control at 100 ppm [8] [%]
O=C(Nc1nc(OCc2cccs2)ncc1F)c1ccccc1 [Compound 759]					51 to 75	76 to 100	26 to 50	76 to 100
CCCCCOC(=O)Nc1nc(OCc2cccc(F)c2)ncc1F [Compound 762]					76 to 100	76 to 100	76 to 100	76 to 100
Nc1nc(OCc2cccnc2)ncc1F [Compound 763]					76 to 100	76 to 100	76 to 100	76 to 100
CC(C)(C)OC(=O)NNc1nc(OCc2ccccc2)ncc1F [Compound 765]					0 to 25	26 to 50	0 to 25	0 to 25
Cc1ccc(COc2ncc(F)c(NNc3ccccc3)n2)cc1 [Compound 766]					0 to 25	51 to 75	0 to 25	26 to 50
COc1cccc(C(=O)Oc2ncc(F)c(/N=C/N(C)C)n2)c1 [Compound 767]					76 to 100	76 to 100	76 to 100	76 to 100
Nc1nc(OCCCc2ccncc2)ncc1F [Compound 768]					0 to 25	26 to 50	0 to 25	26 to 50
COc1ccc(COc2ncc(F)c(NC(=S)Nc3ccccc3F)n2)cc1F [Compound 769]					51 to 75	76 to 100	0 to 25	76 to 100
COc1cccc(COc2ncc(F)c(NC(C)=S)n2)c1 [Compound 770]					76 to 100	76 to 100	76 to 100	76 to 100
CC(Oc1ncc(F)c(NC(=O)OCc2ccccc2)n1)c1ccc(F)cc1 (stereo not shown) [Compound 771]					76 to 100	76 to 100	76 to 100	76 to 100
Cc1nc(C)c(COc2ncc(F)c(N)n2)s1 [Compound 772]					76 to 100	76 to 100	76 to 100	76 to 100
COc1cccc(COc2ncc(F)c(NC(=O)Cc3ccccc3)n2)c1 [Compound 773]					26 to 50	76 to 100	0 to 25	0 to 25
CCCCCCOc1ncc(F)c(NC(=O)Nc2ccsc2)n1 [Compound 774]					0 to 25	0 to 25	0 to 25	0 to 25
CC(C)(C)NNc1nc(OCc2ccc(F)cc2)ncc1F [Compound 775]					0 to 25	0 to 25	0 to 25	0 to 25
CCCNC(=O)Nc1nc(OCc2cccs2)ncc1F [Compound 776]					0 to 25	0 to 25	0 to 25	0 to 25
Cc1ccc(COc2ncc(F)c(NC(=S)Nc3ccccc3F)n2)cc1 [Compound 778]					76 to 100	76 to 100	76 to 100	76 to 100
OCNc1nc(OCc2cccc(F)c2)ncc1F [Compound 780]					76 to 100	76 to 100	76 to 100	76 to 100
N#Cc1cccc(COc2ncc(F)c(NC(=S)Nc3ccccc3F)n2)c1 [Compound 781]					0 to 25	51 to 75	0 to 25	26 to 50
CCOC(=O)COC(=O)Nc1nc(OCc2cccc(C#N)c2)ncc1F [Compound 782]					0 to 25	26 to 50	26 to 50	76 to 100
CC(C)Oc1ccc(COc2ncc(F)c(N)n2)cc1 [Compound 783]					76 to 100	76 to 100	76 to 100	76 to 100
CNc1nc(OCc2ccc(F)cc2)ncc1F [Compound 784]					0 to 25	0 to 25	0 to 25	0 to 25
COc1cc(F)cc(F)c1COc1ncc(F)c(N)n1 [Compound 787]					76 to 100	76 to 100	76 to 100	76 to 100
